Experimental data: patent publication US8268775B2, “Macrolactone derivatives” (Sanofi, priority 2007, dated 2012)
≈ marks a conversion by molar mass, not a printed value.

Test system: Candida albicans FH 2173
Assay: Antifungal activity against Candida albicans, bouillon dilution method (microdilution)
Format: cell-based
Details: FH2173, growth inhibition by 50%, Mueller Hinton broth, 37° C., 20 hours, absorption at 590 nm
Description: For the detection of the antifungal activity of rapidly growing, aerobic causative organisms, the bouillon dilution method (microdilution) according to a procedure of the CLSI (Clinical and Laboratory Standards Institute, M7-A7, Vol. 26, No. 2) is used. The IC50 value was determined. This is the concentration of an active substance which is necessary in order to inhibit the growth of the test organism Candida albicans by 50%.
A stock solution of 1000 μg/ml of active substance [for example the compound of the formula (II) or the compound of the formula (IV)] in methanol was prepared. The test strain (Candida albicans FH 2173) was stored at −80° C. The inoculum was prepared from a fresh, liquid preculture. The preculture was prepared from a bead of the material stored at −80° C. and 30 ml of nutrient medium (Sabourad dextrose broth, Difco) and incubated at 37° C. and 180 revolutions per minute for 24 hours. The inoculum is to be adjusted such that after the inoculation of the test container the necessary number of colony-forming units is achieved. For this, the inoculum was adjusted to a value of 10^7 CFU/ml (CFU: colony forming units) by means of a photometer at a wavelength of 590 nm. […] The exact colony count was determined by means of surface culture. […] The microtiter plates were read with the aid of a photometer at a wavelength of 590 nm by measurement of the absorption. […]

CCC(C)C1C(=O)NC(Cc2cc(Cl)c(O)c(Cl)c2)C(=O)NC(C(C)(C)O)C(=O)OC(c2ccccc2)C(C)/C=C/C=C(\C)C(OC)CC2OC2(C)C(=O)N1C (centres unmarked) [Compound (II)]
IC50: 0.06 µg/mL (≈ 0.0735 µM)

CCC(C)C1C(=O)NC(Cc2cc(Cl)c(OC)c(Cl)c2)C(=O)NC(C(C)(C)O)C(=O)OC(c2ccccc2)C(C)/C=C/C=C(\C)C(OC)CC2OC2(C)C(=O)N1C (centres unmarked) [Compound (IV)]
IC50: 0.41 µg/mL (≈ 0.493 µM)
